Measured values as given in patent US7803408B2, “Method of treating endothelial injury” (East Carolina University, priority 1996, dated 2010).
Read-outs that look alike come from different tables or passages of the source.

Tests used:
[1] = system: bovine capillary endothelial cells; details: cited from earlier work
[2] = doses of up to 1,500 Units/kg for three to four weeks; cited from earlier work
[3] = system: Human umbilical vein endothelial cells (HUVECs); experiment: Protection/inhibition assay, EPO added two hours after cisplatin (MTS/PMS); type: cell-based
Procedure: (§1) Cell Culture. Human umbilical vein endothelial cells (HUVECs) were obtained from Caesarian section derived cords. HUVECs were cultured by standard methodology in 25 cm^2 T-flasks (Corning Inc., Corning, N.Y.) coated with 0.5% porcine skin gelatin (Sigma Chemical Co., St. Louis, Mo.). Medium 199 (Life Technologies, Gaithersburg, Md.), supplemented with 20% defined fetal bovine serum (FBS) (Hyclone, Logan, Utah), 16 U/ml heparin (Sigma), 50 μg/ml bovine hypothalamus derived endothelial mitogen (Biomedical Technologies, Stoughton, Mass.), 100 U/ml penicillin and 100 μg/ml streptomycin was used for the growth of HUVECs. Endothelial cells were characterized by homogenous and typical cobblestone morphology, von Willebrand factor antigen positively, and the presence of Weibel-Palade bodies, as are known in the art.
(§2) Protection/Inhibition Assay. The number of metabolically active cells after exposure of endothelial cell cultures to test agents was assessed using a calorimetric method. This assay utilizes solutions of a tetrazolium compound [3-(4,5-dimethylthiazol-2-yl)-5-(3-carboxymethoxyphenyl)-2-(4 Sulfophenyl)-2H-tetrazolium] (MTS) and an electron coupling reagent, phenazine methosulfate (PMS; available from Promega Corp., Madison, Wis.). […] The amount of formazan is measured at 490 nm absorbance and is directly proportional to the numbers of living cells in culture.
(§3) Endothelial cells grown in the complete (supplemented) M199 medium were harvested in the log phase. […] The number and viability of the cells was determined using a hemocytometer and the trypan blue staining, respectively. […] The absorbance of each well at 490 nm was recorded using an ELISA plate reader. The LD50 and the effect of the various treatments on cell viability and chemosensitivity were determined by plotting the corrected absorbance at 490 nm versus the concentration of the additive (EPO, chemotherapeutic agent, or combinations thereof). […]
Endothelial cell cultures were prepared as described in Example 1. […] Endothelial cell viability was assessed using the MTS/PMS colorimetric assay described in Example 1.

[4] = system: human umbilical vein endothelial cells; details: cited from earlier work
[5] = system: Human umbilical vein endothelial cells (HUVECs); type: cell-based
Procedure: as §1, with “Endothelial cells were characterized by homogenous and typical cobblestone morphology, von Willebrand factor antigen positively, and the presence of Weibel-Palade bodies, as are known in the art.” left out
Protection/Inhibition Assay. The number of metabolically active cells after exposure of endothelial cell cultures to test agents was assessed using a calorimetric method. […] The amount of formazan is measured at 490 nm absorbance and is directly proportional to the numbers of living cells in culture.
Endothelial cells grown in the complete (supplemented) M199 medium were harvested in the log phase. […] The number and viability of the cells was determined using a hemocytometer and the trypan blue staining, respectively. […] The absorbance of each well at 490 nm was recorded using an ELISA plate reader. […]
Endothelial cell cultures were prepared as described in Example 1. […] Endothelial cell viability was assessed using the MTS/PMS calorimetric assay described in Example 1.

[6] = system: Human umbilical vein endothelial cells (HUVECs); type: cell-based; remark: listed apart in the source
Procedure: as §1
as §2, with “Wis.). See Denizot and Lang, J. Immunol. Methods 89:271 (1986); Promega Corporation Technical Bulletins 112, 152 and 169).” for “Wis.).”
as §3

## erythropoietin [EPO]
[1]
  mitogenic and chemoattractant (migratory) effect: exerts a mitogenic and chemoattractant (migratory) effect
[2]
  toxic effects due to EPO itself: without toxic effects
[3]; 0.15 to 5 U/ml EPO two hours following 1 μg/ml cisplatin
  effect on endothelial cell cultures vs cisplatin alone: protected from the damaging effects of cisplatin
[3]; 1.25 U/ml EPO two hours after 1 μg/ml cisplatin
  number of viable cells greater than that of controls: 34%
[3]; 10 to 20 U/ml EPO two hours after 1 μg/ml cisplatin
  cell viability vs controls (cisplatin only): reduced over that seen in controls
[4]
  mitogenic and chemoattractant (migratory) effect: exerts a mitogenic and chemoattractant (migratory) effect
[5]; 2.5 U/ml EPO two hours prior to cisplatin
  reduction of cell growth compared to controls: 48%
[5]; 5 U/ml EPO two hours prior to cisplatin
  reduction of cell growth compared to controls: 58%
[6]; 0.15 to 1.25 U/ml EPO simultaneously with 1 μg/ml cisplatin
  effect on endothelial cell cultures vs cisplatin alone: protected from the damaging effects of cisplatin
[6]; 0.3 U/ml EPO simultaneously with 1 μg/ml cisplatin
  number of viable cells greater than in control cultures treated with cisplatin only: approximately 30%
[6]; 5 to 20 U/ml EPO simultaneously with 1 μg/ml cisplatin
  endothelial cell growth vs cisplatin alone: inhibited
